In ChEMBL document CHEMBL4507267 (2021):

Tests used:
[1] = test system: Tyrosine-protein kinase ABL1 (Homo sapiens), P00519 [M351T]; details: Compound concentration 1000.0 nM
[2] = test system: Tyrosine-protein kinase ABL1 (Homo sapiens), P00519 [Y253F]; details: Compound concentration 1000.0 nM
[3] = biological target: Tyrosine-protein kinase ABL2 (Homo sapiens) (UniProt P42684); details: Compound concentration 1000.0 nM
[4] = biological target: Activin receptor type-1-like (Homo sapiens) (UniProt P37023); details: Compound concentration 1000.0 nM
[5] = biological target: Tyrosine-protein kinase Blk (Homo sapiens) (UniProt P51451); details: Compound concentration 1000.0 nM
Tyrosine-protein kinase Blk (Homo sapiens), sequence (P51451 2-505 limits assumed): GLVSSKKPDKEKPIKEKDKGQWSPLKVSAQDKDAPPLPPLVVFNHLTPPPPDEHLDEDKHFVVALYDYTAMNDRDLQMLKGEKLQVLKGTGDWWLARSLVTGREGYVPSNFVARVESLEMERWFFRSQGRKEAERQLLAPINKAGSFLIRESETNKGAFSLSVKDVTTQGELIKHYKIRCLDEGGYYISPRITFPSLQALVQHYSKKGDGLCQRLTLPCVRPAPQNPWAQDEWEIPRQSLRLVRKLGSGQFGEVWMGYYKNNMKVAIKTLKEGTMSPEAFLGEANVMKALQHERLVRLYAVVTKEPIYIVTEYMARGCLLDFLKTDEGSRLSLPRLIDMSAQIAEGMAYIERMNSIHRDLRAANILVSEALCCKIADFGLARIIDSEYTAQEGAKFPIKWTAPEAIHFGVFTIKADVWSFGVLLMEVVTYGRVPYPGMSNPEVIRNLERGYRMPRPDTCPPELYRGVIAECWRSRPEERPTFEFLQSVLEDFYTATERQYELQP

[6] = biological target: Protein-tyrosine kinase 6 (Homo sapiens) (UniProt Q13882); details: Compound concentration 1000.0 nM
[7] = biological target: Calcium/calmodulin-dependent protein kinase kinase 1 (Homo sapiens) (UniProt Q8N5S9); details: Compound concentration 1000.0 nM
[8] = biological target: Cyclin-dependent kinase 2 (Homo sapiens) (UniProt P24941); details: Compound concentration 1000.0 nM
[9] = biological target: Cyclin-dependent kinase 4 (Homo sapiens) (UniProt P11802); details: Compound concentration 1000.0 nM
[10] = biological target: Casein kinase I isoform alpha (Homo sapiens) (UniProt P48729); details: Compound concentration 1000.0 nM
[11] = biological target: Myotonin-protein kinase (Homo sapiens) (UniProt Q09013); details: Compound concentration 1000.0 nM
[12] = biological target: Dual specificity tyrosine-phosphorylation-regulated kinase 1B (Homo sapiens) (UniProt Q9Y463); details: Compound concentration 1000.0 nM
Dual specificity tyrosine-phosphorylation-regulated kinase 1B (Homo sapiens), sequence (Q9Y463 whole entry, looked up): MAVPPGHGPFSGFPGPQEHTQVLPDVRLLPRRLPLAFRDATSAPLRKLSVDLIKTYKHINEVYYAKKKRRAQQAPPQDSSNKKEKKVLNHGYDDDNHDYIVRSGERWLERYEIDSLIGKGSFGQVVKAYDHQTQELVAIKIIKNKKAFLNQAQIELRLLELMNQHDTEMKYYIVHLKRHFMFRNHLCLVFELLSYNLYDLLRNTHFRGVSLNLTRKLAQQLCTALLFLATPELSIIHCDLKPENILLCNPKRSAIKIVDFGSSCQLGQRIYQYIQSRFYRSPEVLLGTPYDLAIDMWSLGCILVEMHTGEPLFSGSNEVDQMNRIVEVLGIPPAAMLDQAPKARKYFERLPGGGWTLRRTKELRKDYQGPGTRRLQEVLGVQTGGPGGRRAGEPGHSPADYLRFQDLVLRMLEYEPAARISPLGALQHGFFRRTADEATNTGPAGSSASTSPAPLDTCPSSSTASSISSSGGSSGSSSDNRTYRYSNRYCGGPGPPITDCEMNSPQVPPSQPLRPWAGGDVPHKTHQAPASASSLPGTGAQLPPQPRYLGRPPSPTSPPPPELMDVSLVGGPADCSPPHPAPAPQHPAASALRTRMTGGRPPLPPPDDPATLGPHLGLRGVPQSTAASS

[13] = biological target: Receptor-type tyrosine-protein kinase FLT3 (Homo sapiens) (UniProt P36888); details: Compound concentration 1000.0 nM
[14] = test system: Receptor-type tyrosine-protein kinase FLT3 (Homo sapiens), P36888 [N841I]; details: Compound concentration 1000.0 nM
[15] = biological target: Glycogen synthase kinase-3 alpha (Homo sapiens) (UniProt P49840); details: Compound concentration 1000.0 nM
[16] = biological target: Mitogen-activated protein kinase kinase kinase 3 (Homo sapiens) (UniProt Q99759); details: Compound concentration 1000.0 nM
[17] = biological target: MAP kinase-activated protein kinase 2 (Homo sapiens) (UniProt P49137); details: Compound concentration 1000.0 nM
[18] = biological target: MAP/microtubule affinity-regulating kinase 3 (Homo sapiens) (UniProt P27448); details: Compound concentration 1000.0 nM
[19] = biological target: Maternal embryonic leucine zipper kinase (Homo sapiens) (UniProt Q14680); details: Compound concentration 1000.0 nM
Maternal embryonic leucine zipper kinase (Homo sapiens), sequence (Q14680 whole entry, looked up): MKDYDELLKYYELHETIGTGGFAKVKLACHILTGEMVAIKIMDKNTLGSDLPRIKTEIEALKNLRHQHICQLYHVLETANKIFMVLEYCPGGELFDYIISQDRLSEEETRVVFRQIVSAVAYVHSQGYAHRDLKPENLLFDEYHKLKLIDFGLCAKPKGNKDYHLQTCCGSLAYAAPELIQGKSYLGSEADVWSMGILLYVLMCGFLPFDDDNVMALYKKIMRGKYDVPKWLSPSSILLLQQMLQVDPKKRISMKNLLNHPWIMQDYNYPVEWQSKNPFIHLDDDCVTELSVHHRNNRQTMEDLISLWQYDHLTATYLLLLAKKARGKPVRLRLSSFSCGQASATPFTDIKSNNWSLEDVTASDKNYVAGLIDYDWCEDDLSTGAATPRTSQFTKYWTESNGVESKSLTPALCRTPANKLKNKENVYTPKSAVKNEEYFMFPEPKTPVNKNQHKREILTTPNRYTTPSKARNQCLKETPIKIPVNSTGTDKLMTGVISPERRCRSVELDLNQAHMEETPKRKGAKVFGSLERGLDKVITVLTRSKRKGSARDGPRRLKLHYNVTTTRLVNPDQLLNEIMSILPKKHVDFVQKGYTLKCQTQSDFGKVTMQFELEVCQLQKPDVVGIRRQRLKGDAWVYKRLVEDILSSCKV

[20] = biological target: Serine/threonine-protein kinase Nek2 (Homo sapiens) (UniProt P51955); details: Compound concentration 1000.0 nM
[21] = biological target: Platelet-derived growth factor receptor alpha (Homo sapiens) (UniProt P16234); details: Compound concentration 1000.0 nM
[22] = biological target: Platelet-derived growth factor receptor beta (Homo sapiens) (UniProt P09619); details: Compound concentration 1000.0 nM
[23] = biological target: Cyclin-dependent kinase 14 (Homo sapiens) (UniProt O94921); details: Compound concentration 1000.0 nM
[24] = test system: Phosphatidylinositol 4,5-bisphosphate 3-kinase catalytic subunit alpha isoform (Homo sapiens), P42336 [M1043I]; details: Compound concentration 1000.0 nM
Phosphatidylinositol 4,5-bisphosphate 3-kinase catalytic subunit alpha isoform (Homo sapiens), P42336 [M1043I], sequence (P42336 whole entry M1043I, canonical isoform): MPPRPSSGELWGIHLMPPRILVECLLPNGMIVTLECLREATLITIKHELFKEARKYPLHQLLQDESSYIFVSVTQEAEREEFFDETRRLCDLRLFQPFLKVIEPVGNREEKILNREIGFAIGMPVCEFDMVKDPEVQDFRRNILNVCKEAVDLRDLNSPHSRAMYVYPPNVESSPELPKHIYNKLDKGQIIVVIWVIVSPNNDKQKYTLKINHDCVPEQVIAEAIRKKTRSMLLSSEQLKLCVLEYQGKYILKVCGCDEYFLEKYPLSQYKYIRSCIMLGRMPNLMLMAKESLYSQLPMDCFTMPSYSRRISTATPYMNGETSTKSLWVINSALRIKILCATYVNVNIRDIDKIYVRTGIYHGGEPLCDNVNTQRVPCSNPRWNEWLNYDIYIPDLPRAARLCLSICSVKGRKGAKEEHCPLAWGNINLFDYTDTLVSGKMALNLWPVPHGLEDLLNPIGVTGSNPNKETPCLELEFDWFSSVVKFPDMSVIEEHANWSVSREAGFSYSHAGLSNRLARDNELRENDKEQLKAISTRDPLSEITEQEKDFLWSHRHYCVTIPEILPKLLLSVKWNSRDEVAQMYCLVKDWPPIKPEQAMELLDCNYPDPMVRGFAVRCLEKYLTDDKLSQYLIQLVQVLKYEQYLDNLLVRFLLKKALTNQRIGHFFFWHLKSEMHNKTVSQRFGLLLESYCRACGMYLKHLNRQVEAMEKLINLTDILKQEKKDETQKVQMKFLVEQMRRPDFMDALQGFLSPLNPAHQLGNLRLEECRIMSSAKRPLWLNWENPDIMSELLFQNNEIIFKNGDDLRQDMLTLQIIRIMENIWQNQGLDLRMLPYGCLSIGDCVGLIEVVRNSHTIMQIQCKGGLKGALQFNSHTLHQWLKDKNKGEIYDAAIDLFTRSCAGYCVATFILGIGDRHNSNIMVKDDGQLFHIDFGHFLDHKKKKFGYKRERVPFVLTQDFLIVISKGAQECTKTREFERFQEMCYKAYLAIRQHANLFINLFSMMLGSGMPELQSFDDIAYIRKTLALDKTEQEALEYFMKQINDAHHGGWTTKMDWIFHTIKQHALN

[25] = biological target: Serine/threonine-protein kinase N2 (Homo sapiens) (UniProt Q16513); details: Compound concentration 1000.0 nM
Serine/threonine-protein kinase N2 (Homo sapiens), sequence (Q16513 whole entry, looked up): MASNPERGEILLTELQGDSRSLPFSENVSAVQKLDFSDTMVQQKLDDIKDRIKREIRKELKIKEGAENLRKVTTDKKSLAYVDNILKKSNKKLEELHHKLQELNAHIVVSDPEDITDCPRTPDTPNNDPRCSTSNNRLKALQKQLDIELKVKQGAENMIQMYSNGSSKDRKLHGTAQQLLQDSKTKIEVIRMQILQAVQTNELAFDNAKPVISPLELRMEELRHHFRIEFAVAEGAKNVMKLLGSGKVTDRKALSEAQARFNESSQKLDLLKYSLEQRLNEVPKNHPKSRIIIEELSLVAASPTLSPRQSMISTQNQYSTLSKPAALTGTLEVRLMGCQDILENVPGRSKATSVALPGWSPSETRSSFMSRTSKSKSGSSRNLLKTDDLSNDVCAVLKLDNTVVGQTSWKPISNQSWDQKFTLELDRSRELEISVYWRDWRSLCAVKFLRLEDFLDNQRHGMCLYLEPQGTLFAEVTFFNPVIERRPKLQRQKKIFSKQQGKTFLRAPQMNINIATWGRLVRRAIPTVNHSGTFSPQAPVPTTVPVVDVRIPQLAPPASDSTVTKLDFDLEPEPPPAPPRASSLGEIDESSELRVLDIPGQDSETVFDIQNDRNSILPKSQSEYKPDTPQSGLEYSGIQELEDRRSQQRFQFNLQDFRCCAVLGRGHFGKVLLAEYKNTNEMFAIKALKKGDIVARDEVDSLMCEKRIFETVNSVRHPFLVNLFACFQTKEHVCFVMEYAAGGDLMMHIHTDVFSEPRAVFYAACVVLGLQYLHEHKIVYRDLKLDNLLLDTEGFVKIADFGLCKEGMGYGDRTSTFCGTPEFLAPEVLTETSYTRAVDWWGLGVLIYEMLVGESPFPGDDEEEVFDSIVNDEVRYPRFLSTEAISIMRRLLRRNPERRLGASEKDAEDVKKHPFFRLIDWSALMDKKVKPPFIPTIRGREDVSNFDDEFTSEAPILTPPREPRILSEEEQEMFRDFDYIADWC

[26] = biological target: Interferon-induced, double-stranded RNA-activated protein kinase (Homo sapiens) (UniProt P19525); details: Compound concentration 1000.0 nM
[27] = biological target: Serine/threonine-protein kinase PRP4 homolog (Homo sapiens) (UniProt Q13523); details: Compound concentration 1000.0 nM
[28] = test system: Proto-oncogene tyrosine-protein kinase receptor Ret (Homo sapiens), P07949 [M918T]; details: Compound concentration 1000.0 nM
[29] = biological target: Ribosomal protein S6 kinase alpha-4 (Homo sapiens) (UniProt O75676); details: Compound concentration 1000.0 nM
[30] = biological target: Ribosomal protein S6 kinase alpha-1 (Homo sapiens) (UniProt Q15418); details: Compound concentration 1000.0 nM
[31] = biological target: Uncharacterized serine/threonine-protein kinase SBK3 (Homo sapiens) (UniProt P0C264); details: Compound concentration 1000.0 nM
Uncharacterized serine/threonine-protein kinase SBK3 (Homo sapiens), sequence (P0C264 whole entry): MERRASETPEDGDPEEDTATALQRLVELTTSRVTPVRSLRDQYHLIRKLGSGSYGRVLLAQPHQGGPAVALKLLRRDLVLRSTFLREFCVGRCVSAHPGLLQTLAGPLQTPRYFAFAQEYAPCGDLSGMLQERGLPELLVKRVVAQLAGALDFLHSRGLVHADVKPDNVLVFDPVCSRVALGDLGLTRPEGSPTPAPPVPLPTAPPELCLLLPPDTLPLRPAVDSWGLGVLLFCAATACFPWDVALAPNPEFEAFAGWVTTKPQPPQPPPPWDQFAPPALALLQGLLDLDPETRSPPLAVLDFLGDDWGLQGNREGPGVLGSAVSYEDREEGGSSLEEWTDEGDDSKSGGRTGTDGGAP

[32] = biological target: Serine/threonine-protein kinase Sgk3 (Homo sapiens) (UniProt Q96BR1); details: Compound concentration 1000.0 nM
[33] = biological target: NUAK family SNF1-like kinase 2 (Homo sapiens) (UniProt Q9H093); details: Compound concentration 1000.0 nM
[34] = biological target: SNF-related serine/threonine-protein kinase (Homo sapiens) (UniProt Q9NRH2); details: Compound concentration 1000.0 nM
[35] = biological target: Serine/threonine-protein kinase tousled-like 2 (Homo sapiens) (UniProt Q86UE8); details: Compound concentration 1000.0 nM
Serine/threonine-protein kinase tousled-like 2 (Homo sapiens), sequence (Q86UE8 whole entry, looked up): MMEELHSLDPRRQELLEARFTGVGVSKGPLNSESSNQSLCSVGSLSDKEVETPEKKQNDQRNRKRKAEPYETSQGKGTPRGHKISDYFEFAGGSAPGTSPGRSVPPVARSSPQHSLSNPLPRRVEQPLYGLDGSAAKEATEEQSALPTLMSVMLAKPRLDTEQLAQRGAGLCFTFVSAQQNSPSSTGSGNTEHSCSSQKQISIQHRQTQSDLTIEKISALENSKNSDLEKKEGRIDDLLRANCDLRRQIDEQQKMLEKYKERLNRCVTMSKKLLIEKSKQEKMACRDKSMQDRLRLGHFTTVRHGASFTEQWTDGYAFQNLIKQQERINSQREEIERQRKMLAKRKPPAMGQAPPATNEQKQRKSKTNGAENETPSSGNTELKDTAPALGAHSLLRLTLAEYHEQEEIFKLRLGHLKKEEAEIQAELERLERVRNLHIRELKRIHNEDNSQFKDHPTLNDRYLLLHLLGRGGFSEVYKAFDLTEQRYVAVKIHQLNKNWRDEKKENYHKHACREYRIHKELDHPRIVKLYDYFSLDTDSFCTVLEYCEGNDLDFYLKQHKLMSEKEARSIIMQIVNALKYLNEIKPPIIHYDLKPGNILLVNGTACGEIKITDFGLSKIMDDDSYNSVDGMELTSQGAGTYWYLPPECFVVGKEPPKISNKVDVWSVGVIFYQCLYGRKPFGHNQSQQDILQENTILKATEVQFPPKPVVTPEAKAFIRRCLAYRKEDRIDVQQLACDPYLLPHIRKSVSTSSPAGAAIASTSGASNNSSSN

[36] = biological target: High affinity nerve growth factor receptor (Homo sapiens) (UniProt P04629); details: Compound concentration 1000.0 nM
[37] = biological target: Serine/threonine-protein kinase WNK3 (Homo sapiens) (UniProt Q9BYP7); details: Compound concentration 1000.0 nM
[38] = biological target: Serine/threonine-protein kinase 32A (Homo sapiens) (UniProt Q8WU08); details: Compound concentration 1000.0 nM
[39] = biological target: Serine/threonine-protein kinase 32B (Homo sapiens) (UniProt Q9NY57); details: Compound concentration 1000.0 nM
[40] = biological target: 5-hydroxytryptamine receptor 5A (Homo sapiens) (UniProt P47898); details: Compound concentration 10.0 uM
[41] = biological target: 5-hydroxytryptamine receptor 6 (Homo sapiens) (UniProt P50406); details: Compound concentration 10.0 uM
[42] = biological target: Alpha-1A adrenergic receptor (Homo sapiens) (UniProt P35348); details: Compound concentration 10.0 uM
[43] = biological target: Alpha-1B adrenergic receptor (Homo sapiens) (UniProt P35368); details: Compound concentration 10.0 uM
[44] = biological target: GABA-A receptor; anion channel (Rattus norvegicus) (UniProt O09028+P15431+P18506+P18508+P19969+P20236+P23574+P23576+P28471+P28473+P30191+P62813+P63079+P63138+Q91ZM7+Q9ES14); details: Compound concentration 10.0 uM

Cc1c(NC(=O)c2cc(C(N)=O)nc3cc(F)ccc23)c(C(F)(F)F)nn1Cc1ccc(C(C)(C)C)cc1 [BAY-588]
inactive: residual activity [1] 100% | residual activity [2] 100% | residual activity [3] 87% | residual activity [4] 94% | residual activity [5] 72% | residual activity [6] 100% | residual activity [7] 98% | residual activity [8] 88% | residual activity [9] 100% | residual activity [10] 94% | residual activity [11] 100% | residual activity [12] 81% | residual activity [13] 100% | residual activity [14] 52% | residual activity [15] 98% | residual activity [16] 100% | residual activity [17] 100% | residual activity [18] 100% | residual activity [19] 100% | residual activity [20] 100% | residual activity [21] 100% | residual activity [22] 76% | residual activity [23] 94% | residual activity [24] 80% | residual activity [25] 100% | residual activity [26] 100% | residual activity [27] 73% | residual activity [28] 96% | residual activity [29] 100% | residual activity [30] 100% | residual activity [31] 100% | residual activity [32] 94% | residual activity [33] 100% | residual activity [34] 93% | residual activity [35] 100% | residual activity [36] 89% | residual activity [37] 97% | residual activity [38] 100% | residual activity [39] 100% | inhibition [40] 8.32% | inhibition [41] -0.431% | inhibition [42] 5.25% | inhibition [43] -5.98% | inhibition [44] 7.34%

Cc1c(NC(=O)c2cc(C(N)=O)nc3cc(F)ccc23)c(C(F)(F)F)nn1Cc1ccc(C#N)cc1 [BAY-876]
inactive: residual activity [1] 87% | residual activity [2] 80% | residual activity [3] 74% | residual activity [4] 100% | residual activity [5] 77% | residual activity [6] 100% | residual activity [7] 97% | residual activity [8] 91% | residual activity [9] 87% | residual activity [10] 72% | residual activity [11] 92% | residual activity [12] 87% | residual activity [13] 99% | residual activity [14] 53% | residual activity [15] 100% | residual activity [16] 66% | residual activity [17] 97% | residual activity [18] 100% | residual activity [19] 90% | residual activity [20] 100% | residual activity [21] 73% | residual activity [22] 87% | residual activity [23] 100% | residual activity [24] 91% | residual activity [25] 81% | residual activity [26] 100% | residual activity [27] 93% | residual activity [28] 96% | residual activity [29] 85% | residual activity [30] 78% | residual activity [31] 100% | residual activity [32] 83% | residual activity [33] 83% | residual activity [34] 90% | residual activity [35] 100% | residual activity [36] 83% | residual activity [37] 77% | residual activity [38] 89% | residual activity [39] 100% | inhibition [40] -2.35% | inhibition [41] -0.383% | inhibition [42] -5.75% | inhibition [43] -8.82% | inhibition [44] 5.66%
